Measured values taken from patent US7192746B2, “α-Isomaltosyltransferase, process for producing the same and use thereof” (Kabushiki Kaisha Hayashibara Seibutsu Kagaku Kenkyujo, priority 2000, dated 2007).
Where two headings read alike, the source gives them in different places.

Key:
[1] = Saturation concentration of cyclotetrasaccharide in water; format: physicochemical; conditions: for Saturation concentration of cyclotetrasaccharide: water
From the text: The resulting each saturated solution of cyclotetrasaccharide was membrane filtered to remove undissolved cyclotetrasaccharide, and each filtrate was then examined for moisture content by the drying loss method and determined for a saturation concentration of cyclotetrasaccharide at respective temperatures.

amylopsin [2] = target: T1, amylopsin (Homo sapiens, UniProt P04746)
T1 sequence (P04746 16-511): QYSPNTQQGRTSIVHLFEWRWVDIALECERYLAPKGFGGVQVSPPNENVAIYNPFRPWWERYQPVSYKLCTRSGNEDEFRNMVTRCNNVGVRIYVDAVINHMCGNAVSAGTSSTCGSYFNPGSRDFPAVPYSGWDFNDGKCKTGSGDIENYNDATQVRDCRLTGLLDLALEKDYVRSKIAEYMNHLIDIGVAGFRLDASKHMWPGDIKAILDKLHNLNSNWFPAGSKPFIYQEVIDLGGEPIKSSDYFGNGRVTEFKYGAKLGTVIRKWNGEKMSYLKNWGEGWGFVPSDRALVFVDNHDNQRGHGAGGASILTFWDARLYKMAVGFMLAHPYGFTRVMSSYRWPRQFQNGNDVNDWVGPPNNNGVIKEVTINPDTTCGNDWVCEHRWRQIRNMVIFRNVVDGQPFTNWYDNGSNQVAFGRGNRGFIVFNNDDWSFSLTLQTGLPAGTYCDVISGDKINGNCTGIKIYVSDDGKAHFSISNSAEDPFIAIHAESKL

[3] = system: small intestinal mucosal enzyme; assay: Digestion test in vitro
[4] = system: α-isomaltosyl-transferring enzyme from Bacillus globisporus C9; assay: Action on saccharides (substrates, TLC); format: biochemical; set-up: key: −: there was found no substrate change before and after the enzymatic reaction; +: there were found both the reduction of substrate and the formation of cyclotetrasaccharide after the enzymatic reaction; conditions: 2 units/g substrate, 2% (w/v) substrate, 30° C., pH 6.0, 24 hours
Summary of the method: (§1)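 TLC detection used sulfuric acid-methanol coloration for all sugars and diphenylamine-aniline for reducing ones, after development in n-butanol/pyridine/water (6:4:1). Reactions contained 2% (w/v) substrate and 2 units/g substrate of purified enzyme, incubated 24 hours at 30° C., pH 6.0.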

[5] = system: α-isomaltosyl-transferring enzyme from Arthrobacter globiformis A19; assay: Action on saccharides (substrates, TLC); format: biochemical; set-up: key: −: there was found no substrate change before and after the enzymatic reaction; +: there were found both the reduction of substrate and the formation of cyclotetrasaccharide after the enzymatic reaction; conditions: partially purified enzyme, 2 units/g substrate, 2% (w/v) substrate, 30° C., pH 6.0, 24 hours
Summary of the method: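 Substrates 2% (w/v), enzyme 2 units/g substrate, pH 6.0, 30° C., 24 h. Read-out: silica TLC, n-butanol:pyridine:water 6:4:1; sulfuric acid-methanol (total sugar) and diphenylamine-aniline (reducing sugar) staining, pre- vs post-reaction.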

[6] = system: α-isomaltosyl-transferring enzyme from Bacillus globisporus N75; assay: Action on saccharides (substrates, TLC); format: biochemical; set-up: key: −: there was found no substrate change before and after the enzymatic reaction; +: there were found both the reduction of substrate and the formation of cyclotetrasaccharide after the enzymatic reaction; conditions: 2 units/g substrate, 2% (w/v) substrate, 30° C., pH 6.0, 24 hours
Summary of the method: as §1

[7] = system: α-isomaltosyl-transferring enzyme from Bacillus globisporus C11; assay: Action on saccharides (substrates, TLC); format: biochemical; set-up: key: −: there was found no substrate change before and after the enzymatic reaction; +: there were found both the reduction of substrate and the formation of cyclotetrasaccharide after the enzymatic reaction; conditions: 2 units/g substrate, 2% (w/v) substrate, 30° C., pH 6.0, 24 hours
Summary of the method: as §1

[8] = system: α-isomaltosyl-transferring enzyme from Arthrobacter ramosus S1; assay: Action on saccharides (substrates, TLC); format: biochemical; set-up: key: −: there was found no substrate change before and after the enzymatic reaction; +: there were found both the reduction of substrate and the formation of cyclotetrasaccharide after the enzymatic reaction; conditions: 2 units/g substrate, 2% (w/v) substrate, 30° C., pH 6.0, 24 hours
Summary of the method: as §1

amylopsin [9] = target: T1, amylopsin; assay: Digestion test in vitro
salivary amylase = target: T2, salivary amylase (Homo sapiens, UniProt P0DUB6); assay: Digestion test in vitro
T2 sequence (P0DUB6 16-511): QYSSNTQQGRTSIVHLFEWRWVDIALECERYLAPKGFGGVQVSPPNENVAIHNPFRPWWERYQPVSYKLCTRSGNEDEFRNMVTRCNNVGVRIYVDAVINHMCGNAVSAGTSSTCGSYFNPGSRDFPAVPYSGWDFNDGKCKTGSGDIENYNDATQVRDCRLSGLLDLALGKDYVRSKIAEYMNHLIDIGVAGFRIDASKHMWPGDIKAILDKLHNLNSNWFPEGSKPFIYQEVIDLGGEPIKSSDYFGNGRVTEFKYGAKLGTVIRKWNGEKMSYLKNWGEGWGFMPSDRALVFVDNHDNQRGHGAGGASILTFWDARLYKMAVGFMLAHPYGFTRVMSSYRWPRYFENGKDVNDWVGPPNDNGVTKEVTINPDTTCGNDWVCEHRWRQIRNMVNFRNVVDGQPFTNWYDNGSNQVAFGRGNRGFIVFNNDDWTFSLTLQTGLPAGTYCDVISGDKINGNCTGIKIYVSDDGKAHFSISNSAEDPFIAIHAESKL

SMILES	Weight of cyclotetrasaccharide dissolved in 100 g water ([1]; 10° C.)	Weight of cyclotetrasaccharide dissolved in 100 g water ([1]; 30° C.)	Weight of cyclotetrasaccharide dissolved in 100 g water ([1]; 50° C.)	Weight of cyclotetrasaccharide dissolved in 100 g water ([1]; 70° C.)	Weight of cyclotetrasaccharide dissolved in 100 g water ([1]; 90° C.)	Saturation concentration of cyclotetrasaccharide ([1]; 10° C.)	Saturation concentration of cyclotetrasaccharide ([1]; 30° C.)	Saturation concentration of cyclotetrasaccharide ([1]; 50° C.)	Saturation concentration of cyclotetrasaccharide ([1]; 70° C.)	Saturation concentration of cyclotetrasaccharide ([1]; 90° C.)	Decomposition percentage by digestive enzyme (amylopsin [2])	Decomposition percentage by digestive enzyme [3]	Enzymatic action for forming cyclotetrasaccharide, Enzyme of Strain C9 [4]	Enzymatic action for forming cyclotetrasaccharide, Enzyme of Strain A19 [5]	Enzymatic action for forming cyclotetrasaccharide, Enzyme of Strain N75 [6]	Enzymatic action for forming cyclotetrasaccharide, Enzyme of Strain C11 [7]	Enzymatic action for forming cyclotetrasaccharide, Enzyme of Strain S1 [8]	Decomposition percentage by digestive enzyme (amylopsin [9])	Decomposition percentage by digestive enzyme (salivary amylase)
OCC1OC2OCC3O[C@H](O[C@H]4C(O)C(CO)OC(OCC5O[C@H](O[C@@H](C1O)C2O)C(O)C(O)[C@@H]5O)C4O)C(O)C(O)[C@@H]3O (stereo partly drawn) [Cyclotetrasaccharide, cyclo{→6)-α-D-glucopyranosyl-(1→3)-α-D-glucopyranosyl-(1→6)-α-D-glucopyranosyl-(1→3)-α-D-glucopyranosyl-(1→}]	43.5 g	51.9 g	74.2 g	112.7 g	239.0 g	30.3%	34.2%	42.6%	53.0%	70.5%	0.0%								
OC[C@@H](O)[C@@H](O[C@H]1O[C@H](CO)[C@@H](O)[C@H](O)[C@H]1O)[C@H](O)[C@@H](O)CO [Maltitol, maltitol]												4.0%	−	−	−	−	−	0.0%	0.0%
